Experimental data from patent US9422247B2, “Fe(III) complex compounds for the treatment and prophylaxis of iron deficiency symptoms and iron deficiency anemias” (Vifor (International) AG, priority 2011, dated 2016).

Tested on: Male NMRI (SPF) mice
Assay: iron utilization in mouse model (low-iron diet)
Type: in vivo
Conditions: iron-deficient male NMRI mice; stomach tube, 2 mg iron/kg body weight/day, days 1-5 and 8-12; utilization on day 15 calculated from hemoglobin and body weight increase
Experimental: The excellent Fe utilizations that can be accomplished through the Fe complexes according to the invention were measured by means of the following mouse model. Male NMRI (SPF) mice (approximately 3 weeks old) were fed a low-iron diet (approx. 5 ppm iron) for approximately 3 weeks. The iron complexes were then administered to them by means of a stomach tube (2 mg iron/kg body weight/day) for 2 times 5 days, with an interruption of 2 days (days 1-5 and 8-12). Utilization on day 15 was calculated from the hemoglobin increase and the body weight increase in accordance with the formula […] Control group, utilized from food, (mg Fe)

Row | Substance | Utilization n 15 d (abs. %)
1 | Tris-(5,6-dimethylpyrimidine-2-ol 1-oxide)-iron(III) complex [Example 16] | 57
2 | Tris-(4-methyl-6,7-dihydro-5H-cyclopenta[d]pyrimidin-2-ol-1-oxide)-iron(III) complex [Example 10] | 70
3 | Tris-(4-methyl-5,6,7,8-tetrahydrochinazoline-2-ol-3-oxide)-iron(III) complex [Example 11] | 74
4 | Tris-(4,6-diethylpyrimidine-2-ol-1-oxide)-iron(III) complex [Example 4] | 76
5 | Tris-(6-ethyl-4-methylpyrimidin-2-ol-1-oxide)-iron(III) complex [Example 9] | 69
6 | Tris-(4,5,6-trimethylpyrimidine-2-ol-1-oxide)-iron(III) complex [Example 6] | 70
7 | Tris-(4,6-dimethylpyrimidine-2-ol-1-oxide)-iron(III) complex [Example 3] | 74
8 | Tris-(5-chloro-4,6-dimethylpyrimidine-2-ol-1-oxide)-iron(III) complex [Example 7] | 64
9 | Tris-(4-propane-2-yl)pyrimidine-2-ol-1-oxide)-iron(III) complex [Example 12] | 55
10 | Tris-(pyrimidine-2-ol-1-oxide)-iron(III) complex [Example 1] | 89
11 | Tris-(4-ethylpyrimidine-2-ol-1-oxide)-iron(III) complex [Example 8] | 82
12 | Tris-(4-methylpyrimidine-2-ol-oxide)-iron(III) complex [Example 2] | 80
